Measured values taken from US20070037752A1, “Novel alanyl-amino peptidase inhibitors for functionally influencing different cells and treating immunological, inflammatory, neuronal, and other diseases” (priority 2003, published 2007).
Where two headings read alike, the source gives them in different places.

Target: alanyl aminopeptidases (APN) (Homo sapiens, UniProt P15144)
Test: Inhibition of alanyl aminopeptidase enzymatic activity, fluorogenic substrate (Ala)2-rhodamine 110
Assay type: biochemical
Protocol: The inhibition characteristics measured are referred to as IC-50 values or ID50 values (the latter marked with “*”) for said enzyme. The enzymatic activity was determined by means of the fluorogenic substrate/product (Ala)2-rhodamine 110.

[1] = Table 4, unstarred values, read-out: IC50APN
[2] = Table 4, starred values = ID50, read-out: ID50 APN (values marked with *)
[3] = Table 5, unstarred values, read-out: IC50APN
[4] = Table 8, unstarred values, read-out: IC50APN

Chain of alanyl aminopeptidases (APN) (P15144 whole entry, species assumed): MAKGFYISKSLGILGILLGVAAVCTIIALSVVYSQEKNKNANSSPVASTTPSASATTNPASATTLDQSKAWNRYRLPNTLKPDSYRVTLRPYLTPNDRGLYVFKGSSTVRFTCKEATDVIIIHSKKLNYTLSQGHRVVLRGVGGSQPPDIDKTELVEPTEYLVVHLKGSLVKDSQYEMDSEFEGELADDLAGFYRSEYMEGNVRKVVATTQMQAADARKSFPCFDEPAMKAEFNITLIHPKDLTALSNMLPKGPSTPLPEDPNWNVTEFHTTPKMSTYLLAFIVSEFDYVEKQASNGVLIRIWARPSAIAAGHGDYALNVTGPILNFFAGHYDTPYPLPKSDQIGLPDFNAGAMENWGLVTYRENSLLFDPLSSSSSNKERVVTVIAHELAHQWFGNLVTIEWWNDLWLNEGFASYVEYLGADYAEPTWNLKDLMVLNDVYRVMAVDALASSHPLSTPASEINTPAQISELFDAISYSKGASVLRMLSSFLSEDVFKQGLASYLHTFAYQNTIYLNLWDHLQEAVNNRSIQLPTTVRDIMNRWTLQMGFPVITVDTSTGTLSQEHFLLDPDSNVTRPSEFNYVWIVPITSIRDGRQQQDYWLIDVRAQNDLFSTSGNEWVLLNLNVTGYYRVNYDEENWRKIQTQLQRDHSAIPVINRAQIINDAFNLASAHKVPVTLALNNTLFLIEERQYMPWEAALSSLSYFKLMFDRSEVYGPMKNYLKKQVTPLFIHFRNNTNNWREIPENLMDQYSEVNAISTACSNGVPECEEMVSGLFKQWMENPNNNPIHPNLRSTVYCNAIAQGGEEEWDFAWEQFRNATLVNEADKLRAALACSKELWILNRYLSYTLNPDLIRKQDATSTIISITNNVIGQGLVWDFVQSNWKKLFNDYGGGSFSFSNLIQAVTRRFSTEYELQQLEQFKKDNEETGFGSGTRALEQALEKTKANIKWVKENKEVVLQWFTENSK

SMILES: Cc1ccc(S(=O)(=O)N2CCC(C(=O)N/N=C/c3ccco3)CC2)cc1 [A4.160]
- IC50 [1]: 69.3 µM

SMILES: O=C(Cc1ccccc1)NCC(=O)N/N=C/c1ccco1 [A4.161]
- IC50 [2]: 73.1 µM

SMILES: O=C(CCc1ccccc1)N/N=C/c1ccco1 [A4.162]
- IC50 [1]: 74.7 µM

SMILES: O=C(N/N=C/c1ccco1)c1cc(-c2ccccc2Cl)n[nH]1 [A4.163]
- IC50 [2]: 75.8 µM

SMILES: COc1ccc(OCC(=O)N/N=C/c2c(Br)cc(Br)c(O)c2Br)cc1 [A4.164]
- IC50 [2]: 76.4 µM

SMILES: Cn1c(=O)c2c(ncn2CC(=O)N/N=C/C=C\c2ccco2)n(C)c1=O [A4.166]
- IC50 [2]: 79.8 µM

SMILES: COc1ccc(/C=N/NC(=O)CNC(=O)c2cccc(F)c2)cc1[N+](=O)[O-] [A4.167]
- IC50 [2]: 80.4 µM

SMILES: Cc1ccc(OCC(=O)N/N=C\c2ccco2)c(C)c1 [A4.168]
- IC50 [2]: 81.8 µM

SMILES: O=C(CCn1nnc2ccccc21)N/N=C/c1ccco1 [A4.169]
- IC50 [1]: 82.9 µM

SMILES: O=C(COc1ccccc1)N/N=C/c1ccco1 [A4.170]
- IC50 [1]: 87.5 µM

SMILES: O=C(CNC(=O)c1ccccc1Br)N/N=C/c1ccco1 [A4.171]
- IC50 [2]: 91.2 µM

SMILES: O=C(N/N=C/c1ccco1)c1ccccc1[N+](=O)[O-] [A4.172]
- IC50 [1]: 91.2 µM

SMILES: O=C(CNC(=O)c1ccccc1O)N/N=C/c1ccco1 [A4.173]
- IC50 [2]: 98.8 µM

SMILES: Cn1cccc1CC(=O)N/N=C\c1ccco1 [A4.174]
- IC50 [2]: 113 µM

SMILES: O=C(N/N=C\C=C\c1ccco1)c1cc(-c2cccs2)n[nH]1 [A4.175]
- IC50 [2]: 132 µM

SMILES: CC(C(=O)N/N=C/c1ccco1)n1nnc2ccccc21 (stereo not drawn) [A4.176]
- IC50 [2]: 146 µM

SMILES: COc1cccc(/C=N/NC(=O)c2ccn(C)n2)c1O [A4.177]
- IC50 [1]: 142 µM

SMILES: O=C(Cc1cccs1)N/N=C\c1ccco1 [A4.178]
- IC50 [1]: 143 µM

SMILES: C/C(=N\NC(=O)c1ccco1)c1ccc(C)o1 [A4.179]
- IC50 [1]: 152 µM

SMILES: O=C(CNC(=O)c1cccc(F)c1)N/N=C/c1ccco1 [A4.180]
- IC50 [2]: 155 µM

SMILES: C/C(=N\NC(=O)c1cc(-c2ccco2)n[nH]1)c1ccco1 [A4.181]
- IC50 [2]: 161 µM

SMILES: COc1cc(C(=O)NCC(=O)N/N=C\c2ccc(C)o2)cc(OC)c1OC [A4.182]
- IC50 [2]: 161 µM

SMILES: COc1cccc(C(=O)NCC(=O)N/N=C/c2ccc([N+](=O)[O-])o2)c1 [A4.183]
- IC50 [2]: 222 µM

SMILES: O=C(N/N=C/c1ccco1)c1ccc(NCc2ccccc2)cc1 [A4.184]
- IC50 [2]: 294 µM

SMILES: O=C(N/N=C/c1ccco1)c1ccc([N+](=O)[O-])cc1 [A4.185]
- IC50 [2]: 305 µM

SMILES: C/C(=N\NC(=O)c1ccn(C)n1)c1ccco1 [A4.186]
- IC50 [2]: 323 µM

SMILES: C/C(=N\NC(=O)COc1ccc(C)cc1[N+](=O)[O-])c1ccco1 [A4.187]
- IC50 [2]: 422 µM

SMILES: O=C(Nc1cccc(/N=C/c2cc(/N=N\c3ccccc3Cl)ccc2O)c1)c1ccco1 [A5.001]
- IC50 [3]: 3.6 µM

SMILES: O=C(Nc1cccc(/N=C/c2cc(Br)cc(Br)c2O)c1)c1ccco1 [A5.003]
- IC50 [3]: 8.2 µM

SMILES: CCCOc1[nH]c(/N=C/c2ccccc2)c(C#N)c1C#N [A5.004]
- IC50 [3]: 20 µM

SMILES: Oc1ccc(Cl)cc1/N=C/c1ccc(-c2ccc(F)cc2)o1 [A5.005]
- IC50 [3]: 77.3 µM

SMILES: CC1(C)CC(CC/N=C/c2ccccc2)(Cc2ccccc2)CCO1 (stereo not drawn) [A5.006]
- IC50 [3]: 93.6 µM

SMILES: CC(C)Oc1ccc(/C=N/CCC2(c3ccccc3)CCOC(C)(C)C2)cc1 (stereo not drawn) [A5.007]
- IC50 (Table 5, starred values = ID50, read-out: ID50 APN (values marked with *)): 197 µM

SMILES: COc1ccc(C(=O)Nc2ccc(S(=O)(=O)N3CCCCC3)cc2)cc1 [A6.001]
- IC50 (Table 6, read-out: IC50APN): 8.4 µM

SMILES: CC1CCCN(S(=O)(=O)c2ccc(NC(=O)/C=C/c3ccco3)cc2)C1 (stereo not drawn) [A6.002]
- IC50 (Table 6, read-out: IC50APN): 8.4 µM

SMILES: O=C(CS(=O)(=O)c1ccc(Cl)cc1)NO [A6.003]
- IC50 (Table 6, read-out: IC50APN): 11.5 µM

SMILES: NNC(=O)c1ccc(NS(=O)(=O)c2cccs2)cc1 [A6.004]
- IC50 (Table 6, read-out: IC50APN): 11.8 µM

SMILES: Cc1ccc(S(=O)(=O)CNC(=S)c2ccc3ccccc3c2)cc1 [A6.005]
- IC50 (Table 6, read-out: IC50APN): 11.8 µM

SMILES: N/C(=N/OS(=O)(=O)c1ccc(C(F)(F)F)cc1)C1CSCCS1 (stereo not drawn) [A6.006]
- IC50 (Table 6, read-out: IC50APN): 13.4 µM

SMILES: O=[N+](O)CC(c1ccccc1)P(=O)(c1ccccc1)c1ccccc1 (stereo not drawn) [A6.007]
- IC50 (Table 6, read-out: IC50APN): 16.3 µM

SMILES: Cc1ccc(S(=O)(=O)N(Cc2ccc(Cl)cc2)c2ccccc2C(=O)N/N=C/c2ccco2)cc1 [A6.008]
- IC50 (Table 6, read-out: IC50APN): 16.4 µM

SMILES: Cc1ccccc1S(=O)(=O)Nc1cccc(C(=O)N/N=C/c2ccco2)c1 [A6.009]
- IC50 (Table 6, read-out: IC50APN): 19.2 µM

SMILES: CCOC(=O)c1c(C)oc2c1c1c(c3ccccc32)OCN(C2CCS(=O)(=O)C2)C1 (stereo not drawn) [A6.010]
- IC50 (Table 6, read-out: IC50APN): 22.3 µM

SMILES: Cc1ccc(S(=O)(=O)CNC(=S)c2ccc(Cl)c(Cl)c2)cc1 [A6.011]
- IC50 (Table 6, read-out: IC50APN): 18 µM

SMILES: O=C(Nc1ccc(N=Nc2ccccc2)cc1)c1ccc(S(=O)(=O)N2CCCC2)cc1 [A6.012]
- IC50 (Table 6, read-out: IC50APN): 21.6 µM

SMILES: Cc1ccc(/C=C/C(=O)Nc2ccc(S(=O)(=O)N3CCCC3)cc2)o1 [A6.013]
- IC50 (Table 6, read-out: IC50APN): 24.8 µM

SMILES: CC1CCN(S(=O)(=O)c2ccc3c(c2)C(Cl)(Cl)C(=O)N3)CC1 [A6.015]
- IC50 (Table 6, read-out: IC50APN): 37.2 µM

SMILES: O=C(CNS(=O)(=O)c1ccc2c(c1)OCCO2)N/N=C/c1ccco1 [A6.016]
- IC50 (Table 6, read-out: IC50APN): 55.6 µM

SMILES: Cc1ccc(S(=O)(=O)N2CCC(C(=O)N/N=C/c3ccco3)CC2)cc1 [A6.017]
- IC50 (Table 6, read-out: IC50APN): 69.3 µM

SMILES: CN/C=C1\C=C(c2ccccc2)OC1=S [A7.001]
- IC50 (Table 7, read-out: IC50APN): 6 µM

SMILES: CCc1cccc(CC)c1NC(=S)N/N=C1\C(=O)N(CN2CC(C)CC(C)C2)c2ccccc21 (stereo not drawn) [A7.002]
- IC50 (Table 7, read-out: IC50APN): 6.7 µM

SMILES: Cc1ccc(S(=O)(=O)CNC(=S)c2ccc3ccccc3c2)cc1 [A7.004]
- IC50 (Table 7, read-out: IC50APN): 11.8 µM

SMILES: O=C(O)CSCC1NC(=S)N(c2ccccc2)C1=O (stereo not drawn) [A7.005]
- IC50 (Table 7, read-out: IC50APN): 12 µM

SMILES: O=C1C(Cc2c[nH]c3ccccc23)NC(=S)N1c1ccccc1 (stereo not drawn) [A7.006]
- IC50 (Table 7, read-out: IC50APN): 12.4 µM

SMILES: Cc1cccc(C)c1NC(=S)NC(=O)c1cccs1 [A7.007]
- IC50 (Table 7, read-out: IC50APN): 12.9 µM

SMILES: CSCCC1NC(=S)N(Cc2ccccc2)C1=O (stereo not drawn) [A7.008]
- IC50 (Table 7, read-out: IC50APN): 14.1 µM

SMILES: Cc1ccc(S(=O)(=O)CNC(=S)c2ccc(Cl)c(Cl)c2)cc1 [A7.010]
- IC50 (Table 7, read-out: IC50APN): 18 µM

SMILES: O=C1C(Cc2ccc(O)cc2)NC(=S)N1C1CCCCC1 (stereo not drawn) [A7.011]
- IC50 (Table 7, read-out: IC50APN): 21.3 µM

SMILES: O=C1C(Cc2ccc3[nH]ccc3c2)NC(=S)N1c1ccccc1 (stereo not drawn) [A7.012]
- IC50 (Table 7, read-out: IC50APN): 36.9 µM

SMILES: CCOC(=O)c1ncn(C(=O)OC)c1N [A8.001]
- IC50 (Table 8, starred values = ID50, read-out: ID50 APN (values marked with *)): 0.9 µM

SMILES: C/C(Cn1nnc([N+](=O)[O-])n1)=N/NC(=O)COc1ccccc1[N+](=O)[O-] [A8.002]
- IC50 [4]: 3.4 µM

SMILES: COC(=O)C1=C(C(=O)OC)C(c2cc(Br)ccc2O)c2sc(O)nc2S1 (stereo not drawn) [A8.003]
- IC50 [4]: 4.7 µM

SMILES: CCc1cccc(CC)c1NC(=S)N/N=C1\C(=O)N(CN2CC(C)CC(C)C2)c2ccccc21 (stereo not drawn) [A8.004]
- IC50 [4]: 6.7 µM

SMILES: CCOC(=O)N1CCc2c(sc(NC(=O)c3ccc(F)cc3)c2C(=O)Nc2ccc(Br)cc2)C1 [A8.005]
- IC50 [4]: 7.3 µM

SMILES: CC1SC(N/N=C/c2ccco2)=NC1=O (stereo not drawn) [A8.006]
- IC50 [4]: 8 µM

SMILES: CC(C)CC1CC(=S)C(C2CCCCC2)C1=O (stereo not drawn) [A8.007]
- IC50 [4]: 8 µM

SMILES: CC(C)(C)OC(=O)N/N=C\C=C\c1ccco1 [A8.008]
- IC50 [4]: 10.8 µM

SMILES: O=C1C(Cc2c[nH]c3ccccc23)NC(=S)N1c1ccccc1 (stereo not drawn) [A8.009]
- IC50 [4]: 12.4 µM

SMILES: Cc1cccc(C)c1NC(=S)NC(=O)c1cccs1 [A8.010]
- IC50 [4]: 12.9 µM

SMILES: COC(=O)N/N=C(C)\C=C\c1ccco1 [A8.011]
- IC50 [4]: 13.5 µM

SMILES: CSCCC1NC(=S)N(Cc2ccccc2)C1=O (stereo not drawn) [A8.012]
- IC50 [4]: 14.1 µM

SMILES: Cn1c(=O)c2c(nc3sccn32)n(C)c1=O [A8.013]
- IC50 [4]: 14.3 µM

SMILES: CN(/N=C/c1sc(=O)[nH]c1Cl)c1ccccc1 [A8.014]
- IC50 [4]: 14.4 µM

SMILES: Cc1cccc(C)c1Nc1c(-c2ccccc2NC(=O)Nc2ccccc2)nc2c(C(=O)NCc3ccc(F)cc3)cccn12 [A8.015]
- IC50 [4]: 14.9 µM

SMILES: O=C1C(Cc2ccc3[nH]ccc3c2)NC(=S)N1c1ccccc1 (stereo not drawn) [A8.016]
- IC50 [4]: 14.9 µM

SMILES: CCOC(=O)CCCCC(=O)c1c(C)n(C(=O)c2ccc(N3C(=O)CCC3=O)cc2)c(=O)n1C(=O)c1ccc(N2C(=O)CCC2=O)cc1 [A8.017]
- IC50 [4]: 15.6 µM

SMILES: Cc1cc(=O)[nH]c(N/N=C/c2ccco2)n1 [A8.018]
- IC50 [4]: 18.2 µM

SMILES: O=C1C(Cc2ccc(O)cc2)NC(=S)N1C1CCCCC1 (stereo not drawn) [A8.019]
- IC50 [4]: 21.3 µM

SMILES: O=C1C(Cc2ccccc2)NC(=S)N1c1ccccc1 (stereo not drawn) [A8.020]
- IC50 [4]: 26.1 µM

SMILES: Cn1nc(-c2cccs2)nc2c(=O)n(C)c(=O)nc1-2 [A8.021]
- IC50 [4]: 25 µM

SMILES: Cc1ccc(/C=N/NC2=NC(=O)CS2)o1 [A8.022]
- IC50 [4]: 26.4 µM

SMILES: Cn1c(=O)[nH]c2nnc(-c3cccs3)nc2c1=O [A8.023]
- IC50 [4]: 22.6 µM

SMILES: Cc1ccc(Cn2c(SCCC(=O)O)nc3c2c(=O)n(C)c(=O)n3C)cc1 [A8.025]
- IC50 [4]: 28 µM

SMILES: C/C(=N\N=C1\SC(CC(=O)O)C(=O)N1c1ccccc1)c1ccco1 (stereo not drawn) [A8.026]
- IC50 [4]: 28.6 µM

SMILES: Cc1cccc(C)c1Nc1c(-c2ccccc2NC(=O)Nc2ccc(OC(F)(F)F)cc2)nc2c(C(=O)NCC(C)C)cccn12 [A8.027]
- IC50 [4]: 31.4 µM

SMILES: O=C1C(Cc2ccc3[nH]ccc3c2)NC(=S)N1c1ccccc1 (stereo not drawn) [A8.029]
- IC50 [4]: 36.9 µM

SMILES: COc1cc(C)[n+](OC(=O)N(C)C)c(C)c1 [A8.030]
- IC50 [4]: 42.4 µM
